What was measured:
[1] = system: control cell line in HyQ medium (Control HyQ, non-transfected CHO cell line); assay: Re-alkalinization experiment (pHi recovery after CO2 acid load, flow cytometry) in control cell line; assay type: cell-based, Chinese Hamster
Description: To examine the effect of hCAII expression on the cell internal pH value (pHi), the control cell line in HyQ medium and clone E11 were submitted to a short term acidification. This was achieved by mixing the cells with a CO2-containing solution and measuring the subsequent pHi recovery. […] A replicate of this experiment was performed with the carbonic anhydrase II inhibitor ethoxyzolamide and the results are presented in FIGS. 7(A) and 7(B). […] The following Table summarizes some of the characteristics of the tested cell lines.
pHi measurements were carried out by flow cytometry with the available pHi fluorescent indicator, Carboxy SNARF-1 AM (Molecular Probes Inc.). This dye is an acetoxymethyl (AM) ester that enter the cells readily and is hydrolyzed by non-specific esterases to yield the free fluorescent dye. SNARF-1 AM is very sensitive to pHi changes within the physiological range. It is excited between 488 nm and 530 nm and the fluorescence emission is monitored at two wavelengths, typically about 580 nm (FL2-H) and 640 nm (FL3-H). This is particularly interesting as the fluorescence emission wavelength ratio can be calculated foe a more accurate determination of the pHi. With the use of this ratiometric technique, a number of fluorescence measurement artifacts are eliminated, such as photobleaching, cell thickness and leakage and non-uniform loading of the indicator (SNARF® pH indicators, Product information, 2003, Molecular Probes Inc.). Herein the Pseudo-Null calibration method was used. […] A simplification can be considered if the calibration solutions are prepared in such a way that a concentration of weak base and a concentration of weak acid produce an equal but opposite change in pHi (i.e., pHa=pHb). The derived relationship for pHi determination is presented in Equation 10.11.
The regulation of the pHi was studied by flow cytometric analysis during intracellular acidification with bicarbonate. The kinetic of the transporters were examined. This test was made at physiological conditions. Therefore medium was used instead of buffer to account for influences of other medium components. To eliminate the activity of other cellular pHi-regulation systems, cells were pre-incubated in bicarbonate-free medium buffered with HEPES. […] This system consisting of two disposable 5 ml Luer-Lock syringes (B. Braun AG, Melsungen, Germany) connected by a short tubing and two Luer tubing connectors (Rotilabo®). These Luer connectors permitted the rapid and easy connection/disconnection of the 2 syringes.
Syringe A contained stained cells in bicarbonate-free production medium and syringe B production medium with 4.2 g/l NaHCO3 (corresponding to […] at pH 7.2). Both media contained 20 mM HEPES and were adjusted to pH 7.2 at 37° C. Acid-load was achieved by pressing bicarbonate-containing medium from syringe B into syringe A. A 5 ml syringe was pre-loaded with 22 μl of SNARF-1 AM (2 mM stock solution; Table 3). 1×10^6 cells, from the exponential phase, were harvested and washed once with 4 ml medium without bicarbonate. After which, the cell suspension was sucked (without air bubbles) into the pre-loaded fluorescence dye syringe, which was them closed with the Luer-stopper and gently mixed. […] The syringe B was discarded, syringe A was closed and after short mixing, the acid-loaded cells were analyzed by flow cytometry. Additionally, some samples were measured with the blood gas analyzer to determine the content of CO2 in medium during the experiment. […]

[2] = system: hCAII-expressing CHO cell clone E11; assay: Re-alkalinization experiment (pHi recovery after CO2 acid load, flow cytometry) in hCAII-expressing clone; assay type: cell-based, Chinese Hamster
Description: pHi measurements were carried out by flow cytometry with the available pHi fluorescent indicator, Carboxy SNARF-1 AM (Molecular Probes Inc.). This dye is an acetoxymethyl (AM) ester that enter the cells readily and is hydrolyzed by non-specific esterases to yield the free fluorescent dye. SNARF-1 AM is very sensitive to pHi changes within the physiological range. It is excited between 488 nm and 530 nm and the fluorescence emission is monitored at two wavelengths, typically about 580 nm (FL2-H) and 640 nm (FL3-H). This is particularly interesting as the fluorescence emission wavelength ratio can be calculated foe a more accurate determination of the pHi. […] Herein the Pseudo-Null calibration method was used. […] A simplification can be considered if the calibration solutions are prepared in such a way that a concentration of weak base and a concentration of weak acid produce an equal but opposite change in pHi (i.e., pHa=pHb). The derived relationship for pHi determination is presented in Equation 10.11.
Syringe A contained stained cells in bicarbonate-free production medium and syringe B production medium with 4.2 g/l NaHCO3 (corresponding to 25% CO2 at pH 7.2). Both media contained 20 mM HEPES and were adjusted to pH 7.2 at 37° C. Acid-load was achieved by pressing bicarbonate-containing medium from syringe B into syringe A. A 5 ml syringe was pre-loaded with 22 μl of SNARF-1 AM (2 mM stock solution; Table 3). 1×10^6 cells, from the exponential phase, were harvested and washed once with 4 ml medium without bicarbonate. After which, the cell suspension was sucked (without air bubbles) into the pre-loaded fluorescence dye syringe, which was them closed with the Luer-stopper and gently mixed. After a 25 min. period of incubation at 37° C. in the dark, with regularly mixing to avoid cell settling, followed dissolved gas and flow cytometric analysis. Three measurements of loaded cells in bicarbonate-free medium were made before acidification of cells cytoplasm. Afterwards, the syringe B was connected to syringe A and the double volume of NaHCO3-containing medium was added. The syringe B was discarded, syringe A was closed and after short mixing, the acid-loaded cells were analyzed by flow cytometry. Additionally, some samples were measured with the blood gas analyzer to determine the content of CO2 in medium during the experiment.
To test if the re-alkalinization effect was due to the hCAII-overexpression, the hCAII inhibitor ethoxyzolamide (ACTZ) was used. […]

In the case of `CCOc1ccc2nc(S(N)(=O)=O)sc2c1` [ACTZ, ethoxyzolamide], the “Steady state pHi” value ([1]; Control HyQ + ACTZ, 100 μM ethoxyzolamide in media, pHe 7.10) is reported as 7.02, the “pHi (acid load)” value ([1]; Control HyQ + ACTZ, 100 μM ethoxyzolamide, about 9% CO2 acid load) is reported as 6.84 and the “pHi/min (5 min)” value ([1]; Control HyQ + ACTZ, 100 μM ethoxyzolamide, initial recovery rate of first 5 min after acid load) is reported as 0.049 pHi/min. The “decrease on the re-alkalinization rate” value ([1]; control cell line in HyQ medium, in the presence of the inhibitor) was 30%, the “time after exposure to CO2-containing medium at which steady state pHi was exceeded” value ([1]; hCAII inhibited reaction, control cell line in HyQ medium (11 min. without inhibitor)) was 5 min and the “Steady state pHi” value ([2]; Clone E11 + ACTZ, 100 μM ethoxyzolamide in media, pHe 7.11) was 6.87. The “pHi (acid load)” value ([2]; Clone E11 + ACTZ, 100 μM ethoxyzolamide, about 9% CO2 acid load) was 6.61, the “pHi/min (5 min)” value ([2]; Clone E11 + ACTZ, 100 μM ethoxyzolamide, initial recovery rate of first 5 min after acid load) was 0.057 pHi/min and the “decrease on the re-alkalinization rate” value ([2]; clone E11, in the presence of the inhibitor) was 19%. The “time after exposure to CO2-containing medium at which steady state pHi was exceeded” value ([2]; hCAII inhibited reaction, clone E11 (8 min. without inhibitor)) was 5 min.
